The results in this text go back to US8846908B2, “Tricyclic carbamate JAK inhibitors” (Rigel Pharmaceuticals, Inc., priority 2008, dated 2014).

A value given as a limit tells only on which side of the number the result lay.

Chain of BaF3 V617F cells (O60674 whole entry V617F): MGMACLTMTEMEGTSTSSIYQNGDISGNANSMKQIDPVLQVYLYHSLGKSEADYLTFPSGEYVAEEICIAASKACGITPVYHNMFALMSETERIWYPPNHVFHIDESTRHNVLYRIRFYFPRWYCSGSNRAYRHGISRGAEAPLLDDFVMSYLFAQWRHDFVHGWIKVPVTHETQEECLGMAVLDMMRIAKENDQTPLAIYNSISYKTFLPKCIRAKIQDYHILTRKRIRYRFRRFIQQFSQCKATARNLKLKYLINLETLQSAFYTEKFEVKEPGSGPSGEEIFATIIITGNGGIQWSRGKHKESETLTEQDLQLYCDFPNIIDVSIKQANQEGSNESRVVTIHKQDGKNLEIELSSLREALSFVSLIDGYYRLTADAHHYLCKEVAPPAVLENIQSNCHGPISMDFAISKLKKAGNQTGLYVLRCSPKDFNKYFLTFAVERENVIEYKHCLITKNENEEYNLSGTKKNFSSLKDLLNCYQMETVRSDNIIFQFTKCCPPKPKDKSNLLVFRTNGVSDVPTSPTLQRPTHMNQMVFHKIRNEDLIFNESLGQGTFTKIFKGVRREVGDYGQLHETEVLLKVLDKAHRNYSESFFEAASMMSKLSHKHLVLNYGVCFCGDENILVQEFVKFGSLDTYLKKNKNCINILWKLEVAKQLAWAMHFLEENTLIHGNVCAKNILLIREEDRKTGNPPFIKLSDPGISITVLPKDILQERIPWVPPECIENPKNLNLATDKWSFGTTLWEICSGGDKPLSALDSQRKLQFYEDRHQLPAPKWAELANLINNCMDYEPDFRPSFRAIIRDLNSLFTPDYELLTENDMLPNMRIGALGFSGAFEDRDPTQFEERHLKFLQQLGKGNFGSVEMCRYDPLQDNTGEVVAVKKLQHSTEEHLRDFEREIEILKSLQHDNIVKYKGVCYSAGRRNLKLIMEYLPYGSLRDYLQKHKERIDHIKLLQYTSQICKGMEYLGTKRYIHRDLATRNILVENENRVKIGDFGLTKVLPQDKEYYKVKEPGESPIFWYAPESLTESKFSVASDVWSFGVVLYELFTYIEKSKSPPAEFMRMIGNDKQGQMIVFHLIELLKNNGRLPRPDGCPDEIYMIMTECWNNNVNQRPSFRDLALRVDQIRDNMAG

The assay concerns the target BaF3 V617F cells (Homo sapiens, UniProt O60674, V617F, cells depend on it). As to the kind of experiment: Proliferation assay, BaF3 V617F cells (Cell Titer-Glo). The assay is classed as cell-based, mouse. The note with it: proliferation for 72 hours at 37° C., stated to show ability to inhibit JAK2 activity, read-out: IC50 (the source's name). The procedure: BaF3 V617F cells are maintained and plated in RPMI with 10% FBS. Plating density for these cells is 1×10^5 cells/mL.
The cells were resuspended in a corresponding medium at a required cell density (see above). 100μ of cell suspension was added to each well of a flat bottom 96 well white plate. The compound was serially diluted in DMSO from 5 mM in 3-fold dilutions, and then diluted 1:250 in the RPMI 1640 medium containing 5% FBS and pen/strep. 100 μL of resulting 2× compound solution was added per well in duplicate and the cells were allowed to proliferate for 72 hours at 37° C.
Proliferation was measured using Cell Titer-Glo. The substrate was thawed and allowed to come to room temperature. After removal of top 100 μL of medium from each well, 100 μL of the premixed Cell Titer-Glo reagent was added to each well. The plates were mixed on an orbital shaker for three minutes to induce lysis and incubated at ambient temperature for an additional five minutes to allow the signal to equilibrate. The Luminescence was read on the Wallac Plate Reader.
The results of the ability of the compounds of the invention to inhibit JAK2 activity, when tested in the above assay, are shown in the following Table 2 wherein the level of activity (i.e., the IC50) for each compound is indicated in Table 2. The compound numbers in Table 2 refers to the compounds disclosed herein as being prepared by the methods disclosed herein.
With `O=C1N[C@@H]2c3cc(Nc4ncc(Cl)c(Nc5ccc(CCNS(=O)(=O)C6CC6)cc5)n4)ccc3C[C@@H]2O1` [Compound 1, 5-Chloro-N4-[4-[2-[N-(cyclopropylsulfonyl)amino]ethyl]phenyl]-N2-[(3aR,8aS)-2-oxo-3,3a,8,8a-tetrahydro-2H-indeno[1,2-d]oxazol-5-yl]-2,4-pyrimidinediamine], the GI50 was in the range of 1000 to 5000 nM.
To `Cc1cnc(Nc2ccc3c(c2)[C@H]2NC(=O)O[C@H]2C3)nc1Nc1ccc2c(c1)N(C)C(=O)C(C)(C)O2` [Compound 2, 5-Methyl-N2-[(3aR,8aS)-2-oxo-3,3a,8,8a-tetrahydro-2H-indeno[1,2-d]oxazol-5-yl]-N4-(2,2,4-trimethyl-3-oxo-benz[1,4]oxazin-6-yl)-2,4-pyrimidinediamine] belongs below 250 nM; to `Cc1cnc(Nc2ccc3c(c2)[C@H]2NC(=O)O[C@H]2C3)nc1Nc1ccc2c(c1)N(C)C(=O)CS2` [Compound 4, 5-Methyl-N4-(4-methyl-3-oxo-2H-benz[1,4]thiazin-6-yl)-N2-[(3aR,8aS)-2-oxo-3,3a,8,8a-tetrahydro-2H-indeno[1,2-d]oxazol-5-yl]-2,4-pyrimidinediamine], 500 to 1000 nM.
To `Cc1cnc(Nc2ccc3c(c2)[C@H]2NC(=O)OC2C3)nc1Nc1ccc2c(n1)N(C)C(=O)C(C)(C)O2` (stereo partly drawn) [Compound 5, 5-Methyl-N2-[(3aR,8aS)-2-oxo-3,3a,8,8a-tetrahydro-2H-indeno[1,2-d]oxazol-5-yl]-N4-(2,2,4-trimethyl-3-oxo-5-pyrido[1,4]oxazin-6-yl)-2,4-pyrimidinediamine] belongs below 250 nM.
Under `CCCN1C(=O)COc2ccc(Nc3nc(Nc4ccc5c(c4)[C@H]4NC(=O)O[C@H]4C5)ncc3C)cc21` [Compound 6, 5-Methyl-N4-(4-propyl-3-oxo-2H-benz[1,4]oxazin-6-yl)-N2-[(3aR,8aS)-2-oxo-3,3a,8,8a-tetrahydro-2H-indeno[1,2-d]oxazol-5-yl]-2,4-pyrimidinediamine] stands 250 to 500 nM.
As to `Cc1cnc(Nc2ccc3c(c2)[C@H]2NC(=O)O[C@H]2C3)nc1Nc1ccc2c(c1)N(C)C(=O)C(C)(C)S2` [Compound 7, 5-Methyl-N2-[(3aR,8aS)-2-oxo-3,3a,8,8a-tetrahydro-2H-indeno[1,2-d]oxazol-5-yl]-N4-(2,2,4-trimethyl-3-oxo-benz[1,4]thiazin-6-yl)-2,4-pyrimidinediamine], the GI50 is below 250 nM.
To `O=C1N[C@@H]2c3cc(Nc4ncc(Cl)c(Nc5ccc(CNS(=O)(=O)C6CC6)cc5)n4)ccc3C[C@@H]2O1` [Compound 8, 5-Chloro-N4-[4-[[N-(cyclopropylsulfonyl)amino]methyl]phenyl]-N2-[(3aR,8aS)-2-oxo-3,3a,8,8a-tetrahydro-2H-indeno[1,2-d]oxazol-5-yl]-2,4-pyrimidinediamine] belongs below 250 nM.
To `Cc1cnc(Nc2ccc3c(c2)[C@@H]2NC(=O)O[C@@H]2C3)nc1Nc1ccc2c(c1)N(C)C(=O)C(C)(C)O2` [Compound 9, 5-Methyl-N2-[(3aS,8aR)-2-oxo-3,3a,8,8a-tetrahydro-2H-indeno[1,2-d]oxazol-5-yl]-N4-(2,2,4-trimethyl-3-oxo-benz[1,4]oxazin-6-yl)-2,4-pyrimidinediamine] belongs 250 to 500 nM; to `CN1C(=O)C(C)(C)Oc2ccc(Nc3nc(Nc4ccc5c(c4)[C@@H]4NC(=O)O[C@@H]4C5)ncc3Cl)cc21` [Compound 10, 5-Chloro-N2-[(3aS,8aR)-2-oxo-3,3a,8,8a-tetrahydro-2H-indeno[1,2-d]oxazol-5-yl]-N4-(2,2,4-trimethyl-3-oxo-benz[1,4]oxazin-6-yl)-2,4-pyrimidinediamine], below 250 nM.
To `CCN1C(=O)C(C)(C)Oc2ccc(Nc3nc(Nc4ccc5c(c4)[C@@H]4NC(=O)O[C@@H]4C5)ncc3C)cc21` [Compound 11, N4-(2,2-Dimethyl-4-ethyl-3-oxo-benz[1,4]oxazin-6-yl)-5-methyl-N2-[(3aS,8aR)-2-oxo-3,3a,8,8a-tetrahydro-2H-indeno[1,2-d]oxazol-5-yl]-2,4-pyrimidinediamine] belongs 250 to 500 nM.
On to `CCN1C(=O)C(C)(C)Oc2ccc(Nc3nc(Nc4ccc5c(c4)[C@@H]4NC(=O)O[C@@H]4C5)ncc3Cl)cc21` [Compound 12, 5-Chloro-N4-(2,2-dimethyl-4-ethyl-3-oxo-benz[1,4]oxazin-6-yl)-N2-[(3aS,8aR)-2-oxo-3,3a,8,8a-tetrahydro-2H-indeno[1,2-d]oxazol-5-yl]-2,4-pyrimidinediamine], for which the GI50 lay within 250 to 500 nM.
To `Cc1cnc(Nc2ccc3c(c2)[C@@H]2NC(=O)O[C@@H]2C3)nc1Nc1ccc2c(c1)NC(=O)C(C)(C)O2` [Compound 13, N4-(2,2-Dimethyl-3-oxo-4H-benz[1,4]oxazin-6-yl)-5-methyl-N2-[(3aS,8aR)-2-oxo-3,3a,8,8a-tetrahydro-2H-indeno[1,2-d]oxazol-5-yl]-2,4-pyrimidinediamine] belongs 1000 to 5000 nM; to `CC(C)(C)NS(=O)(=O)c1cccc(Nc2nc(Nc3ccc4c(c3)[C@@H]3NC(=O)O[C@@H]3C4)ncc2Cl)c1` [Compound 14, 5-Chloro-N4-[3-[[(1,1-dimethylethyl)amino]sulfonyl]phenyl]-N2-[(3aS,8aR)-2-oxo-3,3a,8,8a-tetrahydro-2H-indeno[1,2-d]oxazol-5-yl]-2,4-pyrimidinediamine], 500 to 1000 nM; to `Cc1cnc(Nc2ccc3c(c2)[C@@H]2NC(=O)O[C@@H]2C3)nc1Nc1ccc(CNS(=O)(=O)C2CC2)cc1` [Compound 15, N4-[4-[[N-(Cyclopropylsulfonyl)amino]methyl]phenyl]-5-methyl-N2-[(3aS,8aR)-2-oxo-3,3a,8,8a-tetrahydro-2H-indeno[1,2-d]oxazol-5-yl]-2,4-pyrimidinediamine], 1000 to 5000 nM.
For `O=C1N[C@H]2c3cc(Nc4ncc(Cl)c(Nc5ccc(CNS(=O)(=O)C6CC6)cc5)n4)ccc3C[C@H]2O1` [Compound 16, 5-Chloro-N4-[4-[[N-(cyclopropylsulfonyl)amino]methyl]phenyl]-N2-[(3aS,8aR)-2-oxo-3,3a,8,8a-tetrahydro-2H-indeno[1,2-d]oxazol-5-yl]-2,4-pyrimidinediamine], the GI50 is 1000 to 5000 nM.
As for `Cc1cc(CNS(=O)(=O)C2CC2)ccc1Nc1nc(Nc2ccc3c(c2)[C@@H]2NC(=O)O[C@@H]2C3)ncc1Cl` [Compound 17, 5-Chloro-N4-[4-[[N-(cyclopropylsulfonyl)amino]methyl]-2-methylphenyl]-N2-[(3aS,8aR)-2-oxo-3,3a,8,8a-tetrahydro-2H-indeno[1,2-d]oxazol-5-yl]-2,4-pyrimidinediamine], the GI50 is 1000 to 5000 nM.
To `Cc1cc(CNS(=O)(=O)C2CC2)ccc1Nc1nc(Nc2ccc3c(c2)[C@@H]2NC(=O)OC2C3)ncc1C` (stereo partly shown) [Compound 18] belongs 1000 to 5000 nM; to `O=C1N[C@H]2c3cc(Nc4ncc(Cl)c(Nc5cccc6c5CCC6)n4)ccc3CC2O1` (stereo partly shown) [Compound 19], at least 5000 nM; to `Cc1cnc(Nc2ccc3c(c2)[C@@H]2NC(=O)O[C@@H]2C3)nc1Nc1cccc2c1CCC2` [Compound 20, N4-(Indan-4-yl]-5-methyl-N2-[(3aS,8aR)-2-oxo-3,3a,8,8a-tetrahydro-2H-indeno[1,2-d]oxazol-5-yl]-2,4-pyrimidinediamine], below 250 nM.
Under `O=C1N[C@H]2c3cc(Nc4ncc(Cl)c(Nc5cccc6c5CCCC6)n4)ccc3C[C@H]2O1` [Compound 21, 5-Chloro-N2-[(3aS,8aR)-2-oxo-3,3a,8,8a-tetrahydro-2H-indeno[1,2-d]oxazol-5-yl]-N4-(5,6,7,8-tetrahydronaphthalen-1-yl)2,4-pyrimidinediamine] stands 500 to 1000 nM; under `Cc1cnc(Nc2ccc3c(c2)[C@@H]2NC(=O)O[C@@H]2C3)nc1Nc1cccc2c1CCCC2` [Compound 22, 5-Methyl-N2-[(3aS,8aR)-2-oxo-3,3a,8,8a-tetrahydro-2H-indeno[1,2-d]oxazol-5-yl]-N4-(5,6,7,8-tetrahydronaphthalen-1-yl)-2,4-pyrimidinediamine], 250 to 500 nM; under `O=C1N[C@H]2c3cc(Nc4ncc(Cl)c(Nc5cccc6c5OCCO6)n4)ccc3C[C@H]2O1` [Compound 23, N4-(1,4-Benzodioxan-5-yl)-5-chloro-N2-[(3aS,8aR)-2-oxo-3,3a,8,8a-tetrahydro-2H-indeno[1,2-d]oxazol-5-yl]-2,4-pyrimidinediamine], 1000 to 5000 nM.
Under `Cc1cnc(Nc2ccc3c(c2)[C@@H]2NC(=O)O[C@@H]2C3)nc1Nc1cccc2c1OCCO2` [Compound 24, N4-(1,4-Benzodioxan-5-yl)-5-methyl-N2-[(3aS,8aR)-2-oxo-3,3a,8,8a-tetrahydro-2H-indeno[1,2-d]oxazol-5-yl]-2,4-pyrimidinediamine] stands below 250 nM; under `O=C1N[C@H]2c3cc(Nc4ncc(Cl)c(Nc5cccc6c5OC(F)(F)O6)n4)ccc3C[C@H]2O1` [Compound 25, 5-Chloro-N4-(2,2-difluoro-1,3-benzodioxol-4-yl)-N2-[(3aS,8aR)-2-oxo-3,3a,8,8a-tetrahydro-2H-indeno[1,2-d]oxazol-5-yl]-2,4-pyrimidinediamine], at least 5000 nM; under `O=C1N[C@@H]2c3cc(Nc4ncc(F)c(Nc5ccc(OCc6ccccn6)cc5)n4)ccc3C[C@@H]2O1` [Compound 26, 5-Fluoro-N2-[(3aR,8aS)-2-oxo-3,3a,8,8a-tetrahydro-2H-indeno[1,2-d]oxazol-5-yl]-N4-[4-(pyridin-2-ylmethoxy)phenyl]-2,4-pyrimidinediamine], 1000 to 5000 nM.
